From patent US10087188B2, “Benzamide imidazopyrazine Btk inhibitors” (MERCK SHARP & DOHME CORP., priority 2014, dated 2018)

Assays:
[1] = target: BTK enzyme (recombinant full-length BTK, hBTK) (Homo sapiens (Human), UniProt Q06187); test: Btk enzyme activity assay, LANCE TR-FRET; type: biochemical; settings: 50 pM hBTK, 2 μM biotin-A5-peptide, 25 μM ATP; 60 minute compound & enzyme incubation; read-out: BTK binding IC50
Experimental: Btk Enzyme Activity Assay Methods
BTK enzymatic activity was determined with the LANCE (Lanthanide Chelate Excite) TR-FRET (Time-resolved fluorescence resonance energy transfer) assay. […] After 60 minutes incubation with detection reagents, reaction plates were read on a PerkinElmer EnVision plate reader using standard TR-FRET protocol.

HeLa cells = test: [3H] Adenosine uptake assay; type: cell-based; settings: Homo sapiens, HeLa, accumulation of tritiated adenosine into HeLa cells; compound concentration range 10 μM to 0.032 nM; read-out: ADU inhibition IC50 (adenosine uptake inhibition potency)
How it was run: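 Accumulation of tritiated adenosine in adherent HeLa cells, detected by scintillant-plate coincidence counting, gives IC50 via 4-parameter robust fit. Compound (constant 0.25% DMSO) applied 30 min ahead, then 60 min radiolabel exposure (added from 500 nM solution), ambient conditions, HBSS with 5% FBS.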

BTK enzyme (recombinant full-length BTK, hBTK), sequence (Q06187 whole entry): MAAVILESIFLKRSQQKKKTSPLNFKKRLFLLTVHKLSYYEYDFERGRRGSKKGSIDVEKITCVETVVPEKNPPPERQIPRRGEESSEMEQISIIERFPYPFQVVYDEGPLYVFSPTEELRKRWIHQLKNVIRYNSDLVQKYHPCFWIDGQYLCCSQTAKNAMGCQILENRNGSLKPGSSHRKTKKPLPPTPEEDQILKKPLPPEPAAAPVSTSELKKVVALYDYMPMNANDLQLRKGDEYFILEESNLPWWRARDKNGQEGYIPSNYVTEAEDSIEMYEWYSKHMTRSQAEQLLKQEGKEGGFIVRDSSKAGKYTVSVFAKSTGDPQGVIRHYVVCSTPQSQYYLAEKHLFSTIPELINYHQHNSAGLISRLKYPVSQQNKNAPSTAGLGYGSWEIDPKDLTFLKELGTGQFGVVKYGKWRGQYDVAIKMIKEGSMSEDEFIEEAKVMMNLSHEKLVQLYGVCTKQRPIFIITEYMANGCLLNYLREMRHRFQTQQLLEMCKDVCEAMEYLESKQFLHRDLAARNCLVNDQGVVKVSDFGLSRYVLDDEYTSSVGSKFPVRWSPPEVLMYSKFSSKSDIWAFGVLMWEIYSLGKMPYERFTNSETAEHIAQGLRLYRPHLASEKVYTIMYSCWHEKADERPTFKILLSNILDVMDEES

Row | SMILES | IC50 [1] | IC50 (HeLa cells)
1 | CC(C)(C(=O)O)N1CCC[C@@H](c2nc(-c3ccc(C(=O)Nc4cc(C(F)(F)F)ccn4)cc3F)c3c(N)nccn23)C1 [Example 186, 2-{(3R)-3-[8-amino-1-(2-fluoro-4-{[4-(trifluoromethyl)pyridin-2-yl]carbamoyl}phenyl)imidazo [1,5-a]pyrazin-3-yl]piperidin-1-yl}-2-methylpropanoic acid] | 9.4 nM | 1240 nM
2 | COc1cc(C(=O)Nc2cc(C(F)(F)F)ccn2)ccc1-c1nc([C@H]2CN(C3CCC(C)(C(=O)O)CC3)[C@@H](C)CO2)n2ccnc(N)c12 (stereo partly drawn) [Example 181, 4-{(2R,5S)-2-[8-amino-1-(2-methoxy-4-{[4-(trifluoromethyl)pyridin-2-yl]carbamoyl}phenyl)imidazo [1,5-a]pyrazin-3-yl]-5-methylmorpholin-4-yl}-1-methylcyclohexanecarboxylic acid] | 1.8 nM | 2340 nM
3 | Nc1nccn2c([C@H]3CC[C@@H](C(=O)N4CCC[C@@H]4C(=O)O)C3)nc(-c3ccc(C(=O)Nc4cc(C(F)(F)F)ccn4)cc3)c12 [Example 18, 1-({(1R,3S)-3-[8-amino-1-(4-{[4-(trifluoromethyl)pyridin-2-yl]carbamoyl}phenyl)imidazo[1,5-a]pyrazin-3-yl]cyclopentyl}carbonyl)-D-proline] | 2.6 nM | 10000 nM
4 | CCOc1cc(C(=O)Nc2cc(C(F)(F)F)ccn2)ccc1-c1nc([C@@H]2CC[C@](C(=O)O)(C(C)C)C2)n2ccnc(N)c12 [Example 61, (1R,3R)-3-[8-amino-1-(2-ethoxy-4-{[4-(trifluoromethyl)pyridin-2-yl]carbamoyl}phenyl)imidazo[1,5-a]pyrazin-3-yl]-1-(1-methylethyl) cyclopentane-carboxylic acid] | 2.4 nM | 10000 nM
5 | Nc1nccn2c(-c3ccc(C(=O)O)nc3)nc(-c3ccc(C(=O)Nc4cc(C(F)(F)F)ccn4)cc3)c12 [Example 29, 5-[8-amino-1-(4-{[4-(trifluoromethyl)pyridin-2-yl]carbamoyl}phenyl)imidazo[1,5-a]pyrazin-3-yl]pyridine-2-carboxylic acid] | 11.3 nM | 7500 nM
6 | CC(C)[C@@]1(C(=O)O)CC[C@H](c2nc(-c3ccc(C(=O)Nc4cc(C(F)(F)F)ccn4)cc3)c3c(N)ncc(Cl)n23)C1 [Example 107, (1R,3S)-3-[8-amino-5-chloro-1-(4-{[4-(trifluoromethyl)pyridin-2-yl]carbamoyl}phenyl)imidazo[1,5-a]pyrazin-3-yl]-1-(1-methylethyl) cyclopentane-carboxylic acid] | 3.2 nM | 1390 nM
7 | CC1(C)[C@H](C(=O)O)CC[C@]1(C)c1nc(-c2ccc(C(=O)Nc3cc(C(F)(F)F)ccn3)cc2)c2c(N)nccn12 [Example 141, (1R,3S)-3-[8-amino-1-(4-{[4-(trifluoromethyl)pyridin-2-yl]carbamoyl}phenyl)imidazo[1,5-a]pyrazin-3-yl]-2,2,3-trimethylcyclopentane carboxylic acid] | 5.2 nM | 2980 nM
8 | CCOc1cc(C(=O)Nc2cc(C(F)(F)F)ccn2)ccc1-c1nc([C@@H]2CC[C@@](C(=O)O)(C(C)C)C2)n2ccnc(N)c12 [Example 60, (1S,3R)-3-[8-amino-1-(2-ethoxy-4-{[4-(trifluoromethyl)pyridin-2-yl]carbamoyl}phenyl)imidazo[1,5-a]pyrazin-3-yl]-1-(1-methylethyl) cyclopentane-carboxylic acid] | 7.5 nM | 10000 nM
9 | CCOc1cc(C(=O)Nc2cc(C(F)(F)F)ccn2)ccc1-c1nc(C23CCC(C(=O)O)(CC2)CC3)n2c(F)cnc(N)c12 [Example 173, 4-[8-amino-1-(2-ethoxy-4-{[4-(trifluoromethyl)pyridin-2-yl]carbamoyl}phenyl)-5-fluoroimidazo[1,5-a]pyrazin-3-yl]bicyclo[2.2.2] octane-1-carboxylic acid] | 2 nM | 10000 nM

These reach a lower IC50 [1]. Values come first.

Row | IC50 [1] | IC50 (HeLa cells) | SMILES
10 | 1.3 nM | 10000 nM | CCOc1cc(C(=O)Nc2cc(C(F)(F)F)ccn2)cc(F)c1-c1nc([C@@H]2CC[C@](C)(C(=O)O)C2(C)C)n2c(F)cnc(N)c12 [Example 118, (1S,3R)-3-[8-amino-1-(2-ethoxy-6-fluoro-4-{[4-(trifluoromethyl)pyridin-2-yl]carbamoyl}phenyl)-5-fluoroimidazo[1,5-a]pyrazin-3-yl]-1,2,2-trimethylcyclopentane carboxylic acid]
11 | 1.1 nM | 3020 nM | C[C@@]1(C(=O)O)CCC[C@H](c2nc(-c3ccc(C(=O)Nc4cc(C5CC5)ccn4)cc3)c3c(N)nccn23)C1 [Example 159, (1R,3S)-3-(8-amino-1-{4-[(4-cyclopropylpyridin-2-yl)carbamoyl]phenyl}imidazo[1,5-a]pyrazin-3-yl)-1-methylcyclohexane-carboxylic acid]
12 | 1 nM | 5230 nM | CC1(C(=O)O)CCC(C)(c2nc(-c3ccc(C(=O)Nc4cc(C(F)(F)F)ccn4)cc3Cl)c3c(N)nccn23)CC1 (centres unmarked) [Example 133, 4-[8-amino-1-(2-chloro-4-{[4-(trifluoromethyl)pyridin-2-yl]carbamoyl}phenyl)imidazo[1,5-a]pyrazin-3-yl]-1,4-dimethylcyclohexane-carboxylic acid]
13 | 0.91 nM | 10000 nM | COc1cc(C(=O)Nc2cc(C(F)(F)F)ccn2)cc(F)c1-c1nc(C23CCC(C(=O)O)(CC2)CC3)n2c(F)cnc(N)c12 [Example 122, 4-[8-amino-5-fluoro-1-(2-fluoro-6-methoxy-4-{[4-(trifluoromethyl)pyridin-2-yl]carbamoyl}phenyl)imidazo[1,5-a]pyrazin-3-yl]bicyclo[2.2.2] octane-1-carboxylic acid]
14 | 0.74 nM | 1450 nM | C[C@]1(C(=O)O)CC[C@](C)(c2nc(-c3ccc(C(=O)Nc4cc(C(F)(F)F)ccn4)cc3)c3c(N)nccn32)CC1 [Example 30, trans-4-(8-amino-1-(4-((4-(trifluoromethyl)pyridin-2-yl)carbamoyl)phenyl)imidazo[1,5-a]pyrazin-3-yl)-1,4-dimethylcyclohexanecarboxylic acid]
15 | 0.65 nM | 1190 nM | C[C@H]1CO[C@@H](c2nc(-c3ccc(C(=O)Nc4cc(C(F)(F)F)ccn4)cc3)c3c(N)nccn23)CN1[C@H]1CC[C@](C)(C(=O)O)CC1 [Example 191, trans-4-{(2R,5S)-2-[8-amino-1-(4-{[4-(trifluoromethyl)pyridin-2-yl]carbamoyl}phenyl)imidazo [1,5-a]pyrazin-3-yl]-5-methylmorpholin-4-yl}-1-methylcyclohexanecarboxylic acid]
16 | 0.61 nM | 3200 nM | CCOc1cc(C(=O)Nc2cc(C(F)(F)F)ccn2)ccc1-c1nc([C@H]2CC[C@@](C)(C(=O)O)C2(C)C)n2ccnc(N)c12 [Example 72, (1R,3S)-3-[8-amino-1-(2-ethoxy-4-{[4-(trifluoromethyl)pyridin-2-yl]carbamoyl}phenyl)imidazo[1,5-a]pyrazin-3-yl]-1,2,2-trimethylcyclopentane carboxylic acid]
17 | 0.56 nM | 742 nM | COc1cc(C(=O)Nc2cc(C(F)(F)F)ccn2)ccc1-c1nc(C23C4C5C2C2C3C4C52C(=O)O)n2ccnc(N)c12 (centres unmarked) [Example 75, 4-(8-amino-1-(2-methoxy-4-((4-(trifluoromethyl)pyridin-2-yl)carbamoyl)phenyl)imidazo[1,5-a]pyrazin-3-yl)cubane-1-carboxylic acid]
18 | 0.48 nM | 5940 nM | CCOc1cc(C(=O)Nc2cc(C(F)(F)F)ccn2)cc(F)c1-c1nc([C@@H]2CC[C@](C)(C(=O)O)C2(C)C)n2ccnc(N)c12 [Example 113, (1S,3R)-3-[8-amino-1-(2-ethoxy-6-fluoro-4-{[4-(trifluoromethyl)pyridin-2-yl]carbamoyl}phenyl)imidazo[1,5-a]pyrazin-3-yl]-1,2,2-trimethylcyclopentane carboxylic acid]
19 | 0.37 nM | 10000 nM | C[C@H]1CO[C@@H](c2nc(-c3ccc(C(=O)Nc4cc(C(F)(F)F)ccn4)cc3)c3c(N)nccn23)CN1C(=O)C12CC(C(=O)O)(C1)C2 [Example 175, 3-((2R,5S)-2-(8-amino-1-(4-((4-(trifluoromethyl)pyridin-2-yl)carbamoyl)phenyl)imidazo[1,5-a]pyrazin-3-yl)-5-methylmorpholine-4-carbonyl)bicyclo[1.1.1]pentane-1-carboxylic acid]
20 | 0.29 nM | 6880 nM | COc1cc(C(=O)Nc2cc(C(F)(F)F)ccn2)ccc1-c1nc(C23CCC(C(=O)O)(CC2)CC3)n2ccnc(N)c12 [Example 171, 4-[8-amino-1-(2-methoxy-4-{[4-(trifluoromethyl)pyridin-2-yl]carbamoyl}phenyl)imidazo[1,5-a]pyrazin-3-yl]bicyclo[2.2.2] octane-1-carboxylic acid]
21 | 0.26 nM | 3700 nM | Nc1nccn2c([C@H]3CC[C@@H](CC(=O)O)C3)nc(-c3ccc(C(=O)Nc4cc(C(F)(F)F)ccn4)cc3)c12 [Example 50, {(1R,3S)-3-[8-amino-1-(4-{[4-(trifluoromethyl)pyridin-2-yl]carbamoyl}phenyl)imidazo[1,5-a]pyrazin-3-yl]cyclopentyl}acetic acid]
22 | 0.18 nM | 10000 nM | Nc1nccn2c([C@@H]3CC[C@H](CC(=O)O)C3)nc(-c3ccc(C(=O)Nc4cc(C(F)(F)F)ccn4)cc3)c12 [Example 54, {(1S,3R)-3-[8-amino-1-(4-{[4-(trifluoromethyl)pyridin-2-yl]carbamoyl}phenyl)imidazo[1,5-a]pyrazin-3-yl]cyclopentyl}acetic acid]
